Source: ChEMBL document CHEMBL1201862, “PubChem BioAssay data set” (2004)
Active and inactive are the calls of the source.

Legend:
[1] = luciferase reporter signal suppression in cells – H4 neuroglioma cells, luminescence, dose response (AID 1990); assay type: functional, cell-based
[2] = system: Streptococcus sp. 'group A'; test: Streptococcus pyogenes SK(-)GAS viability under kanamycin – luminescence, BacTiterGlo, confirmation, counter-screen for streptokinase expression inhibitor project, dose response (AID 1900); assay type: functional, organism-based
[3] = Luminescence Cell-Based Dose Response HTS to Identify Inhibitors of 5'UTR Stem-Loop Driven Prion Protein mRNA Translation in H4 Neuroglioblastoma Cells. [Related pubchem assays: 1827 (Project Summary), 1813 (Primary HTS)]; assay type: functional
[4] = alpha-synuclein stem-loop luciferase translation blockers – H4 neuroglioma cells, luminescence, confirmation (AID 1988); assay type: functional, cell-based
[5] = target: T1, Streptokinase A (Streptococcus pyogenes serotype M1, UniProt P10520); test: viability-normalized secreted streptokinase activity reduction – plasminogen activation absorbance, OD405, dose response (AID 1914); assay type: functional, Streptococcus pyogenes M1 GAS;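 also: secreted streptokinase activity via plasminogen activation per viability signal from cell pellet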
T1 sequence (P10520 whole entry): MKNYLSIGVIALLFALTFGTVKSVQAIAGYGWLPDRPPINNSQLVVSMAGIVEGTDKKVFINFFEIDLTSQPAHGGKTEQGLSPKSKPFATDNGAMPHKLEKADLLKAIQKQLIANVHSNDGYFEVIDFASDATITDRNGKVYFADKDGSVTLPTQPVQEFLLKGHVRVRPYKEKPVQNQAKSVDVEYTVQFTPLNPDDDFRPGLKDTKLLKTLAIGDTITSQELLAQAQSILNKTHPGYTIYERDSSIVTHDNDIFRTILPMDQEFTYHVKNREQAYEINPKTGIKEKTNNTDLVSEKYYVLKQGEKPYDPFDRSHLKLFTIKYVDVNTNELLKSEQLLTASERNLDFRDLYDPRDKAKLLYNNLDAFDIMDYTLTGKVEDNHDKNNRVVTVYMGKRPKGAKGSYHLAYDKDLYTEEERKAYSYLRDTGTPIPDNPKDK

[6] = microbe, parasite or virus in culture; assay type: functional; settings: Mycobacterium tuberculosis
[7] = system: Streptococcus; test: GAS UMAA2166 growth inhibition – luminescence, BacTiterGlo, counter-screen for streptokinase expression inhibitor project, dose response (AID 1915); assay type: functional, organism-based;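 also: potency for reduction of bacterial viability or growth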
[8] = target: Luciferin 4-monooxygenase (Photinus pyralis, UniProt P08659); test: inhibition of purified Photinus pyralis luciferase – biochemical, luminescence, dose response (AID 1891)
Luciferin 4-monooxygenase, sequence (P08659 whole entry): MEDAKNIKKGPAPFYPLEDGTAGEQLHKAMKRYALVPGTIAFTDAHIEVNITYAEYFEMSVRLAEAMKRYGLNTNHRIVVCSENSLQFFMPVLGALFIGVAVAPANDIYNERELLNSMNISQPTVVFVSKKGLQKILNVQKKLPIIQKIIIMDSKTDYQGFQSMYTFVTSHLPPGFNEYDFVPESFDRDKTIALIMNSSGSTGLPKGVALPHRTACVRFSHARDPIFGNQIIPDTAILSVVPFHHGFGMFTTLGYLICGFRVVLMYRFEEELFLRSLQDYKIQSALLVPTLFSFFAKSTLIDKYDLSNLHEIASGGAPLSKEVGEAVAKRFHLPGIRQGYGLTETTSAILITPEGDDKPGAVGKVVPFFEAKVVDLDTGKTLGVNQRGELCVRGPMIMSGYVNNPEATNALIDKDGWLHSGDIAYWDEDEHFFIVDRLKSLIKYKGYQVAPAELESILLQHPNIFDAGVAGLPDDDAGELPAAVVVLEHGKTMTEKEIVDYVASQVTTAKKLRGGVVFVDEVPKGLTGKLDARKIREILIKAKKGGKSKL

[9] = Luminescence Cell-Based Dose Confirmation HTS to Identify Inhibitors of Platelet Dense Granule Release. [Related pubchem assays: 1663 (Primary HTS), 1678 (Summary of Project)]; assay type: functional
[10] = target: FAD-linked sulfhydryl oxidase ALR (Homo sapiens, UniProt P55789); test: ALR-catalysed DTT oxidation blockers – biochemical, H2O2 detection, luminescence, cherry-pick, dose response (AID 493248)
FAD-linked sulfhydryl oxidase ALR, sequence (P55789 whole entry): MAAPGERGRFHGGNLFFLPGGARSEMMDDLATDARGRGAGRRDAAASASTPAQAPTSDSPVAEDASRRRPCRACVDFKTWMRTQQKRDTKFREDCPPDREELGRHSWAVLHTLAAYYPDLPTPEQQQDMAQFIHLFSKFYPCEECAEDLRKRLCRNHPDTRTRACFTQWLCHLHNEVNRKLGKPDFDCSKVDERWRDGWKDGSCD

[11] = target: Voltage-dependent T-type calcium channel subunit alpha-1H (Homo sapiens, UniProt O95180); assay type: functional;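 also: channel activity triggered by adding a high calcium stimulation buffer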
Voltage-dependent T-type calcium channel subunit alpha-1H, sequence (O95180 whole entry): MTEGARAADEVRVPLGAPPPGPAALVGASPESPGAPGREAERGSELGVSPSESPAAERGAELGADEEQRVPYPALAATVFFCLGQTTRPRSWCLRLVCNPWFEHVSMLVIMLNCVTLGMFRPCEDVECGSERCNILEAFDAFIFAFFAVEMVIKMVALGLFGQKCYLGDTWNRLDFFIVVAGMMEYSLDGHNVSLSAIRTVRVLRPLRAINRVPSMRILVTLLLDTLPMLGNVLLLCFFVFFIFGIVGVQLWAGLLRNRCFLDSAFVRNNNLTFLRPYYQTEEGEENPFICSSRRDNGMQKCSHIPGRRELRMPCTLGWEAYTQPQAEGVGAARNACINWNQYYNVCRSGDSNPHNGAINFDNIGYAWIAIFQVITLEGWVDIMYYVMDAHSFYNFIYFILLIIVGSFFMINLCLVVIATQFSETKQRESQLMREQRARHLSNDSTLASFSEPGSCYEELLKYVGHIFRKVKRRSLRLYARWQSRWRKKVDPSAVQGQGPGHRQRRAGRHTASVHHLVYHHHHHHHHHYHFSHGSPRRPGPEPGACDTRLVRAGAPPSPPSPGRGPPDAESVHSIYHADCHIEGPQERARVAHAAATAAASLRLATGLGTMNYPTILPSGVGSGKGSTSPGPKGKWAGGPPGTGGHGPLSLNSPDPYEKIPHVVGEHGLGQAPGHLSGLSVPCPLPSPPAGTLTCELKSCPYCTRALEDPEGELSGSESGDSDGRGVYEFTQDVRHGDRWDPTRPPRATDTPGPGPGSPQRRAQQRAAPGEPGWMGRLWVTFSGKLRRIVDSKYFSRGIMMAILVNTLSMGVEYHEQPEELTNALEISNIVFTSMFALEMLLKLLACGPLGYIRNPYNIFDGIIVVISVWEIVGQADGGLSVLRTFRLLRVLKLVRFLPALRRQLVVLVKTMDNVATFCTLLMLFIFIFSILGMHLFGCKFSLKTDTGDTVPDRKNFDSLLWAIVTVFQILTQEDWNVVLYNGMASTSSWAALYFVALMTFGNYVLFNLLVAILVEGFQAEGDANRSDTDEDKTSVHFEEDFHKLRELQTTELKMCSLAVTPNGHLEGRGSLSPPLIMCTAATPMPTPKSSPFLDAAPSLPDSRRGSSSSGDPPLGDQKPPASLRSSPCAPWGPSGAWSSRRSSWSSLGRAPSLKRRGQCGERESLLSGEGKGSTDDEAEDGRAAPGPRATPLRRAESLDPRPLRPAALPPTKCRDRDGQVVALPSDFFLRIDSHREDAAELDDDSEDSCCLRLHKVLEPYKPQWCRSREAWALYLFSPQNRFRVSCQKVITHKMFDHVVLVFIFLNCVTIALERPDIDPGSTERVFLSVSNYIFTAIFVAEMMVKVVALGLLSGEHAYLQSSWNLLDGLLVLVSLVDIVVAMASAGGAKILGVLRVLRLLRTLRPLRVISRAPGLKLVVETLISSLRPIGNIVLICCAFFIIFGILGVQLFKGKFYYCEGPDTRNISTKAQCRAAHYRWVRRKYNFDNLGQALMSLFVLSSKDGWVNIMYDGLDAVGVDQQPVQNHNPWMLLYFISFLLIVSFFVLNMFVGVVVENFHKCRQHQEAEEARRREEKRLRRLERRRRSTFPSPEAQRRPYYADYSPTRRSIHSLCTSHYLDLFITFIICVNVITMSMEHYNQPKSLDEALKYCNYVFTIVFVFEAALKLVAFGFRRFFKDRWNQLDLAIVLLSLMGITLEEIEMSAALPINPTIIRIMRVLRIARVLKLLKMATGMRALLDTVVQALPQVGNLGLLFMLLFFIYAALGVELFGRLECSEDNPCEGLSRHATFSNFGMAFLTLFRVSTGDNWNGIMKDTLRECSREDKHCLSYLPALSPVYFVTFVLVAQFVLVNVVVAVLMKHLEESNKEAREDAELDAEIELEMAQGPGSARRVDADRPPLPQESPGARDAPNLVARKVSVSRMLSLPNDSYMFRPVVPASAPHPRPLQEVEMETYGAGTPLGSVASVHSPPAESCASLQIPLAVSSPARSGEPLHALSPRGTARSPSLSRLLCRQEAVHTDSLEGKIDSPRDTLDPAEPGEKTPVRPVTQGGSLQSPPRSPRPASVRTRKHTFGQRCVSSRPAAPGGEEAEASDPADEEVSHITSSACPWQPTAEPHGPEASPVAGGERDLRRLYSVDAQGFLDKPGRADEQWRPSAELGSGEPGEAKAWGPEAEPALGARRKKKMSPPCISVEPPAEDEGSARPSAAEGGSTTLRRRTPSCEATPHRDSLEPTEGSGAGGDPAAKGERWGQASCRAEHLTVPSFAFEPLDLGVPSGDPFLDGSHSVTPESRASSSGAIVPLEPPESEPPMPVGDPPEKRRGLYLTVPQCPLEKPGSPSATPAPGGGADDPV

[12] = target: T2, Polyadenylate-binding protein 1 (Homo sapiens, UniProt P11940); test: MLLE binding blockers, Cy5 peptide tracer – biochemical, fluorescence polarization, Cy5-PAM2 peptide, secondary, miRNA deadenylation inhibitor project, dose response (AID 602260); assay type: functional; settings: read-out: IC50_Mean
T2 sequence (P11940 whole entry, the tested form may be a part): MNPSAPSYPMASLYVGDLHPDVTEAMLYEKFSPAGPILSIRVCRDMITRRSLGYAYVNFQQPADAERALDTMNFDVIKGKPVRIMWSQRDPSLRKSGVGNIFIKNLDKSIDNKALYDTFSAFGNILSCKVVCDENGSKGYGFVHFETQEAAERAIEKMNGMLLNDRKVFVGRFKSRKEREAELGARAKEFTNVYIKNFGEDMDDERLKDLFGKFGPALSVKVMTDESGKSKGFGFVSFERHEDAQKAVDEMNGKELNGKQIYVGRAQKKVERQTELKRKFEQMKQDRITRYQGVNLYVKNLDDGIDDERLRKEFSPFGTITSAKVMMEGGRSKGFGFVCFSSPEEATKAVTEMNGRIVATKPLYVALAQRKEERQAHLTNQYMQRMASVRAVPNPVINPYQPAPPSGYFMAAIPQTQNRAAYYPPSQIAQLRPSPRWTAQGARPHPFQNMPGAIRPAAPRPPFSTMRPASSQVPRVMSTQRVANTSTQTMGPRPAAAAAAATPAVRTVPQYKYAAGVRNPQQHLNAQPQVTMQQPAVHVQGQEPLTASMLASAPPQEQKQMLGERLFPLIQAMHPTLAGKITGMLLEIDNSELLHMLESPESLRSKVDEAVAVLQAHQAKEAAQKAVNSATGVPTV

[13] = target: T2, Polyadenylate-binding protein 1; test: MLLE domain peptide-binding blockers, IC50 – biochemical, fluorescence polarization, FITC-PAM2 peptide, dose response (AID 602259); assay type: functional; settings: read-out: IC50_Mean
[14] = target: T3, Calpain-2 catalytic subunit (Sus scrofa, UniProt P43367); test: m-calpain protease blockers, concentration series – biochemical, fluorogenic peptide substrate, dose response (AID 1420); assay type: functional
T3 sequence (P43367 whole entry): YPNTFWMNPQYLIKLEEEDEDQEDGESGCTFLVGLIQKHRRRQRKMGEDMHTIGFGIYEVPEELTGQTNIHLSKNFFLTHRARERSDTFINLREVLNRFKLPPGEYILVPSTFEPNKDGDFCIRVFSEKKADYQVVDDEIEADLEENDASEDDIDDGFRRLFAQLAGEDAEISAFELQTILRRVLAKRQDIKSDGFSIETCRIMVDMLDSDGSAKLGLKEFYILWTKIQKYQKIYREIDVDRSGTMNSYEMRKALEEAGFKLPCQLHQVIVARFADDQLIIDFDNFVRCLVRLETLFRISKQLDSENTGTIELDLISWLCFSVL

[15] = cells; assay type: functional
[16] = target: Cytochrome P450 2D6 (Homo sapiens, UniProt P10635);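 also: CYP2D6 member of a cytochrome P450 panel assay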
[17] = target: Cytochrome P450 3A4 (Homo sapiens, UniProt P08684);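 also: CYP3A4 tested as one member of a cytochrome P450 panel screen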
Cytochrome P450 3A4, sequence (P08684 whole entry): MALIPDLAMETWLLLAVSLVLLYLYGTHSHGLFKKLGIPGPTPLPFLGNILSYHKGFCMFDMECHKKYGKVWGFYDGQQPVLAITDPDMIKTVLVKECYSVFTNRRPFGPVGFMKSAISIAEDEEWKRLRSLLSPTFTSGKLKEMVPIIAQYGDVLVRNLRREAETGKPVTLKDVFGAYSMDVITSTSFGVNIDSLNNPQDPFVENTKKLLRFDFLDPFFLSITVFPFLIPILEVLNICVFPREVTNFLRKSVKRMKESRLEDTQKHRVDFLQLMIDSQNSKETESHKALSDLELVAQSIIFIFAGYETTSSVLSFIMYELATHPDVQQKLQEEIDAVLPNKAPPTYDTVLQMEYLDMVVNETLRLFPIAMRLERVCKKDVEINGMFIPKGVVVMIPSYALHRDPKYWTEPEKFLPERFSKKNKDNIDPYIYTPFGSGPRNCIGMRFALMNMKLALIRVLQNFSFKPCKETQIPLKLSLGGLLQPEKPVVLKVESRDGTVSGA

[18] = target: Cytochrome P450 2C9 (Homo sapiens, UniProt P11712)
Cytochrome P450 2C9, sequence (P11712 whole entry): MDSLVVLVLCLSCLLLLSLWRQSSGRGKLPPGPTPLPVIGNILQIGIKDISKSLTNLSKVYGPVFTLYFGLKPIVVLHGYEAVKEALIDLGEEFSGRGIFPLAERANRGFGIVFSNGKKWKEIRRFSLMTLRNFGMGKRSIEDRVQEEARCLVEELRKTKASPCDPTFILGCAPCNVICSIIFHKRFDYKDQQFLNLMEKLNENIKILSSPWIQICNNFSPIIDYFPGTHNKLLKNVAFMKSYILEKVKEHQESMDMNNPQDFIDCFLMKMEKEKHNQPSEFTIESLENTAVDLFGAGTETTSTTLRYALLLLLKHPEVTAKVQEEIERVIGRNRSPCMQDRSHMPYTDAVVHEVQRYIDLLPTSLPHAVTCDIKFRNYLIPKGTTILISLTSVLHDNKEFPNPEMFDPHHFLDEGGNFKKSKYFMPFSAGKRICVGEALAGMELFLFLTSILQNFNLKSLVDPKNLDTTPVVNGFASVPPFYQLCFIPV

**Q.** With CC1(C)Cc2c(sc(NC(=O)c3ccc(C(=O)c4ccccc4)cc3)c2C(N)=O)C(C)(C)N1 as the molecule, how does the EC50 [1] read?
**A.** 10.3 µM (active)

**Q.** What about the EC50 [2] of the same molecule?
**A.** 26.3 µM (active)

**Q.** What about the EC50 [3] of the same molecule?
**A.** 16.9 µM (active)

**Q.** And the EC50 [4]?
**A.** 11.6 µM (active)

**Q.** What about the EC50 [5] of the same molecule?
**A.** > 150 µM (not active)

**Q.** And the CC50 [6]?
**A.** 20.7 µM (active)

**Q.** What about the EC50 [7] of the same molecule?
**A.** > 150 µM (not active)

**Q.** Which results are given for COc1ccc2c(c1)N(C(=O)CSc1n[nH]c(C)n1)C(C)(C)C=C2C?
**A.** EC50 [8]: > 112 µM (not active); EC50 [9]: > 112 µM (not active)

**Q.** With O=C(CC(Nc1ccccc1Cl)C(=O)O)c1ccccc1 (configuration not stated) as the molecule, how does the AC50 [10] read?
**A.** 13 µM (active)

**Q.** For CCCOC(=O)c1ccc(NC(=O)c2ccoc2C)cc1, which EC50 [8] is on record?
**A.** 4.18 µM (active)

**Q.** What about the EC50 [9] of the same molecule?
**A.** 5.2 µM (active)

**Q.** For CC1CN(C(=O)N2c3ccccc3Sc3ccccc32)C(C)CC1=O (configuration not stated), which EC50 [11] is on record?
**A.** 8.31 µM (active)

**Q.** With Nc1ccc(-c2cc(N)n(-c3ccccc3)n2)cc1 as the molecule, how does the AC50 [10] read?
**A.** 0.8 µM (active)

**Q.** For CC1(c2ccc3noc(-c4ccc(F)cc4)c3c2)OCCO1, which IC50 [12] is on record?
**A.** > 66 µM (inactive)

**Q.** What about the IC50 [13] of the same molecule?
**A.** 19.3 µM (active)

**Q.** Which results are given for COc1ccc(-c2nn(-c3ccccc3)cc2C(=O)O)cc1OC?
**A.** EC50 [8]: > 112 µM (not active); EC50 [9]: > 112 µM (not active)

**Q.** Which CC50 [6] does the source give for O=C(/C=C/c1cn(-c2ccccc2)nc1-c1cccnc1)c1ccco1 here?
**A.** 11.5 µM (active)

**Q.** Which results are given for Cc1ccc(-c2noc(CN(C(=O)CCCCCN3C(=O)c4ccccc4C3=O)C(C)C)n2)cc1?
**A.** IC50 [14]: 5.93 µM (not active); EC50 [11]: 7.53 µM (active)

**Q.** Which EC50 [8] does the source give for O=C1/C(=C\c2ccc([N+](=O)[O-])cc2)CCc2ccccc21 here?
**A.** 8.13 µM (active)

**Q.** What about the EC50 [9] of the same molecule?
**A.** 2.53 µM (active)

**Q.** With Cc1ccc(NC(=O)N2CCC(c3ccccc3)C2)cc1C (configuration not stated) as the molecule, how does the EC50 [8] read?
**A.** > 112 µM (not active)

**Q.** What about the EC50 [9] of the same molecule?
**A.** > 112 µM (not active)

**Q.** Which results are given for CCOc1ccc(-c2cc(CCCC(=O)NCCC(C)C)no2)cc1?
**A.** CC50 [6]: > 40 µM (active); IC50 [15]: 10.6 µM (active)

**Q.** Which EC50 [11] does the source give for [O-][S+](Cc1cc(Oc2ccccc2)nc(-c2ccccc2)n1)c1ccccc1 (configuration not stated) here?
**A.** 7.24 µM (active)

**Q.** And the AC50 [16]?
**A.** 1.26 µM (inconclusive)

**Q.** What about the AC50 [17] of the same molecule?
**A.** 28.2 µM (inconclusive)

**Q.** What about the AC50 [18] of the same molecule?
**A.** 3.98 µM (inconclusive)

**Q.** For Cn1cccc1Cc1nnc(SCC(=O)Nc2ccc(F)cc2)n1-c1ccc(F)cc1, which EC50 [11] is on record?
**A.** 2.17 µM (active)
